The results in this text go back to US10633353B2, “Polymerizable compound, composition, polymer, optically anisotropic body, liquid crystal display element, and organic EL display” (DIC Corporation, priority 2014, dated 2020).

The data set can be described thus: Preservation stability of the coating liquid. The class given is physicochemical. Conditions: coating liquid stored for 2 months shielded from light at 0° C.; appearance and GPC. An outline of the steps: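 Coating liquid stored 2 months at 0° C shielded from light, then graded A–E. Grades rest on visual appearance, change in composition by GPC, and weight ratio of insoluble components to total solids.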
In the case of `C=CC(=O)OCCOCCOCCOc1ccc(OC(=O)C2CCC(COc3ccc(OCC4CCC(C(=O)Oc5ccc(OCCOCCOCCOC(=O)C=C)cc5)CC4)c(/C=N/N(CCCCCC)c4nc5ccccc5s4)c3)CC2)cc1` (stereo not shown) [1-cmn-90], the Preservation stability entry is “A (No visual change in the appearance of the coating liquid was confirmed. A GPC analysis of the coating liquid confirmed that the change in the composition of the coating liquid was 1% or less.)”.

Consider `C=CC(=O)OCCCCCCOC1CCC(OC(=O)C2CCC(C(=O)Oc3ccc(OC(=O)C4CCC(C(=O)OC5CCC(OCCCCCCOC(=O)C=C)CC5)CC4)c4c3SC(=C(C#N)C(=O)OCC)S4)CC2)CC1` (stereo not shown) [r-3, reference compound], for which the Preservation stability entry was “C (A visual change in the appearance of the coating liquid was confirmed; a trace amount of insoluble components were confirmed, or a GPC analysis of the coating liquid confirmed that the change in the composition of the coating liquid was 3% or less.)”.

`C=CC(=O)OCCCCCOc1ccc(C(=O)OCCc2ccc(OC(=O)c3ccc(OCCCCCOC(=O)C=C)cc3)c(/C=N/Nc3nc4cc(O)c([N+](=O)[O-])cc4[nH]3)c2)cc1` [1-c-29]: the Preservation stability entry is given as “B (No visual change in the appearance of the coating liquid was confirmed. A GPC analysis of the coating liquid confirmed that the change in the composition of the coating liquid was 2% or less.)”.

On to `C=CC(=O)OCCCOc1ccc(OC(=O)C2CCC(COc3ccc(OCC4CCC(C(=O)Oc5ccc(OCCCOC(=O)C=C)cc5)CC4)c(/C=N/Nc4nc5ccccc5s4)c3)CC2)cc1` (stereo not shown) [1-cm-89], for which the Preservation stability entry is “A (No visual change in the appearance of the coating liquid was confirmed. A GPC analysis of the coating liquid confirmed that the change in the composition of the coating liquid was 1% or less.)”. To `C=CC(=O)OCCCOC(=O)/C=C/c1ccc(CCC(=O)Oc2ccc(OC(=O)CCc3ccc(/C=C/C(=O)OCCCOC(=O)C=C)cc3)c(/C=N/Nc3nc4ccccc4s3)c2)cc1` [1-cj-63] belongs “A (No visual change in the appearance of the coating liquid was confirmed. A GPC analysis of the coating liquid confirmed that the change in the composition of the coating liquid was 1% or less.)”; to `C=CC(=O)OCCCCCCOc1ccc(OC(=O)C2CCC(COc3ccc(OCC4CCC(C(=O)Oc5ccc(OCCCCCCOC(=O)C=C)cc5)CC4)c(/C=N/N(CCOCCOC)c4nc5ccccc5s4)c3)CC2)cc1` (stereo not shown) [1-cmn-91], “A (No visual change in the appearance of the coating liquid was confirmed. A GPC analysis of the coating liquid confirmed that the change in the composition of the coating liquid was 1% or less.)”. For `C=CC(=O)OCCCOc1ccc(C(=O)OCCc2ccc(OC(=O)c3ccc(OCCCOC(=O)C=C)cc3)c(/C=N/Nc3nc4cc(C#N)ccc4s3)c2)cc1` [1-c-25], the Preservation stability entry is “B (No visual change in the appearance of the coating liquid was confirmed. A GPC analysis of the coating liquid confirmed that the change in the composition of the coating liquid was 2% or less.)”. `C=CC(=O)OCCCCOC(=O)C1CCC(OC(=O)C2CCC(C(=O)Oc3ccc(OC(=O)C4CCC(C(=O)OC5CCC(C(=O)OCCCCOC(=O)C=C)CC5)CC4)c(/C=N/Nc4nc5ccccc5s4)c3)CC2)CC1` (stereo not shown) [1-f-95]: the Preservation stability entry is on record as “A (No visual change in the appearance of the coating liquid was confirmed. A GPC analysis of the coating liquid confirmed that the change in the composition of the coating liquid was 1% or less.)”. For `C=CC(=O)OCCCCCCOc1ccc(C(=O)Oc2ccc(C(=O)Oc3ccc(OCCCCCCOC(=O)C=C)cc3/C=N/Nc3nc4ccccc4s3)cc2)cc1` [1-eh-72], the Preservation stability result is given as “A (No visual change in the appearance of the coating liquid was confirmed. A GPC analysis of the coating liquid confirmed that the change in the composition of the coating liquid was 1% or less.)”.

With `C=CC(=O)OCCCOc1ccc(OC(=O)C2CCC(COc3ccc(OCC4CCC(C(=O)Oc5ccc(OCCCOC(=O)C=C)cc5)CC4)c(/C=N/N(C(=O)C=C)c4nc5ccccc5s4)c3)CC2)cc1` (stereo not shown) [1-cmn-107], the Preservation stability entry is listed as “A (No visual change in the appearance of the coating liquid was confirmed. A GPC analysis of the coating liquid confirmed that the change in the composition of the coating liquid was 1% or less.)”. In the case of `C=CC(=O)OCCCCOc1ccc(C(=O)OCCc2ccc(OC(=O)c3ccc(OCCCCOC(=O)CC)cc3)c(/C=N/Nc3cc4ccccc4[nH]3)c2)cc1` [1-c-28], the Preservation stability result was “B (No visual change in the appearance of the coating liquid was confirmed. A GPC analysis of the coating liquid confirmed that the change in the composition of the coating liquid was 2% or less.)”.

For `C=CC(=O)OCCCOc1ccc(C(=O)Oc2ccc(C(=O)Oc3ccc(OCCCOC(=O)C=C)cc3/C=N/Nc3nc4ccccc4s3)cc2)cc1` [1-eh-71], the Preservation stability entry was “A (No visual change in the appearance of the coating liquid was confirmed. A GPC analysis of the coating liquid confirmed that the change in the composition of the coating liquid was 1% or less.)”.

As to `C=C(C)C(=O)OCCCOc1ccc(C(=O)OCCc2ccc(OC(=O)c3ccc(OCCCOC(=O)C(=C)C)cc3)c(/C=N/Nc3nc4ccccc4s3)c2)cc1` [1-c-5], the Preservation stability result is given as “A (No visual change in the appearance of the coating liquid was confirmed. A GPC analysis of the coating liquid confirmed that the change in the composition of the coating liquid was 1% or less.)”. In the case of `C=C(C)C(=O)OCCCCOc1ccc(C(=O)OCCc2ccc(OC(=O)c3ccc(OCCCCOC(=O)C(=C)C)cc3)c(/C=N/Nc3nc4ccccc4s3)c2)cc1` [1-c-6], the Preservation stability result is reported as “A (No visual change in the appearance of the coating liquid was confirmed. A GPC analysis of the coating liquid confirmed that the change in the composition of the coating liquid was 1% or less.)”. The same measure for `C=CC(=O)OCCCCOc1ccc(C(=O)OCCc2ccc(OC(=O)c3ccc(OCCCCOC(=O)C=C)cc3)c(/C=N/Nc3nc4ccccc4s3)c2)cc1` [1-c-3]: “A (No visual change in the appearance of the coating liquid was confirmed. A GPC analysis of the coating liquid confirmed that the change in the composition of the coating liquid was 1% or less.)”; for `C=CC(=O)OCCOCCOCCOc1ccc(OC(=O)C2CCC(COc3ccc(OCC4CCC(C(=O)Oc5ccc(OCCOCCOCCOC(=O)C=C)cc5)CC4)c(/C=N/Nc4nc5ccccc5s4)c3)CC2)cc1` (stereo not shown) [1-cm-105]: “A (No visual change in the appearance of the coating liquid was confirmed. A GPC analysis of the coating liquid confirmed that the change in the composition of the coating liquid was 1% or less.)”. Regarding `C=CC(=O)OCCCOc1ccc(/C=C/C(=O)Oc2ccc(OC(=O)/C=C/c3ccc(OCCCOC(=O)C=C)cc3)c(/C=N/Nc3nc4ccccc4s3)c2)cc1` [1-c-44], the Preservation stability result is given as “B (No visual change in the appearance of the coating liquid was confirmed. A GPC analysis of the coating liquid confirmed that the change in the composition of the coating liquid was 2% or less.)”. Turning to `C=CC(=O)OCCCOc1ccc(OC(=O)C2CCC(C(=O)OCCc3ccc(OC(=O)C4CCC(C(=O)Oc5ccc(OCCCOC(=O)C=C)cc5)CC4)c(C=NNc4nc5ccccc5s4)c3)CC2)cc1` (stereo not shown) [1-c-13], the Preservation stability result was “A (No visual change in the appearance of the coating liquid was confirmed. A GPC analysis of the coating liquid confirmed that the change in the composition of the coating liquid was 1% or less.)”. As to `C=CC(=O)OCCCCOc1ccc(OC(=O)C2CCC(C(=O)OCCc3ccc(OC(=O)C4CCC(C(=O)Oc5ccc(OCCCCOC(=O)C=C)cc5)CC4)c(C=NNc4nc5ccccc5s4)c3)CC2)cc1` (stereo not shown) [1-c-14], the Preservation stability result is recorded as “A (No visual change in the appearance of the coating liquid was confirmed. A GPC analysis of the coating liquid confirmed that the change in the composition of the coating liquid was 1% or less.)”. Regarding `C=CC(=O)OCCCCOC(=O)/C=C/c1ccc(C(=O)Oc2ccc(OC(=O)c3ccc(/C=C/C(=O)OCCCCOC(=O)C=C)cc3)c(/C=N/Nc3nc4ccc5ccccc5c4s3)c2)cc1` [1-j-65], the Preservation stability result was “B (No visual change in the appearance of the coating liquid was confirmed. A GPC analysis of the coating liquid confirmed that the change in the composition of the coating liquid was 2% or less.)”. The same measure for `C=CC(=O)OCCCCCCOc1ccc(C(=O)Oc2ccc(OC(=O)c3ccc(OCCCCCCOC(=O)C=C)cc3)c(/C=N/N(CCCCCC)c3nc4ccccc4s3)c2)cc1` [1-cn-83]: “A (No visual change in the appearance of the coating liquid was confirmed. A GPC analysis of the coating liquid confirmed that the change in the composition of the coating liquid was 1% or less.)”; for `C=CC(=O)OCCCCOC(=O)C1CCC(C(=O)OC2CCC(C(=O)Oc3ccc(OC(=O)C4CCC(OC(=O)C5CCC(C(=O)OCCCCOC(=O)C=C)CC5)CC4)c(/C=N/Nc4nc5ccccc5s4)c3)CC2)CC1` (stereo not shown) [1-f-20]: “A (No visual change in the appearance of the coating liquid was confirmed. A GPC analysis of the coating liquid confirmed that the change in the composition of the coating liquid was 1% or less.)”; for `C=CC(=O)OCCCOC(=O)/C=C/c1ccc(C(=O)Oc2ccc(OC(=O)c3ccc(/C=C/C(=O)OCCCOC(=O)C=C)cc3OC)c(/C=N/Nc3nc4ccccc4s3)c2)c(OC)c1` [1-j-57]: “B (No visual change in the appearance of the coating liquid was confirmed. A GPC analysis of the coating liquid confirmed that the change in the composition of the coating liquid was 2% or less.)”. To `C=CC(=O)OCCCCCCOc1ccc(C(=O)Oc2ccc(C(=O)OCCc3ccc(OC(=O)c4ccc(OC(=O)c5ccc(OCCCCCCOC(=O)C=C)cc5)cc4)c(/C=N/Nc4nc5ccccc5s4)c3)cc2)cc1` [1-ch-79] belongs “A (No visual change in the appearance of the coating liquid was confirmed. A GPC analysis of the coating liquid confirmed that the change in the composition of the coating liquid was 1% or less.)”. On to `C=CC(=O)OCCCOc1ccc(/C=C/C(=O)Oc2ccc(OC(=O)/C=C/c3ccc(OCCCOC(=O)C=C)c(Cl)c3)c(/C=N/Nc3nc4ccccc4s3)c2)cc1Cl` [1-c-47], for which the Preservation stability result is on record as “B (No visual change in the appearance of the coating liquid was confirmed. A GPC analysis of the coating liquid confirmed that the change in the composition of the coating liquid was 2% or less.)”.
